Results: PubChem BioAssay AID256 (DTP/NCI, 2004)
Values joined by “and” are separate entries in the source; they are usually repeats but may differ in a detail not shown here. Equal values may be shown once. Toxic doses and inconclusive results are not listed. Rule for the calls: active = survival T/C of 150% or more; inactive = T/C below 125% in these data.

Tested on: CD2F1 mice, L1210 leukemia ip, survival T/C
Test: NCI In Vivo Anticancer Drug Screen. Data for tumor model L1210 Leukemia (intraperitoneal) in CD2F1 (CDF1) mice
Details: higher = longer survival
Method in brief: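 Antitumor effect is scored in animals hosting a serially transplanted tumor. Values compare compound-dosed animals against vehicle-only controls as a simple quotient.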

[1] = endpoint: mean survival time, dose: 100.0 mg/kg/injection, schedule: Q01DX009 (ip), vehicle: saline with Tween-80
[2] = endpoint: mean survival time, dose: 200.0 mg/kg/injection, schedule: Q01DX009 (ip), vehicle: saline with Tween-80
[3] = endpoint: mean survival time, dose: 400.0 mg/kg/injection, schedule: Q01DX009 (ip), vehicle: saline with Tween-80
[4] = endpoint: mean survival time, dose: 100.0 mg/kg/injection, schedule: Q04DX003 (ip), vehicle: saline
[5] = endpoint: mean survival time, dose: 200.0 mg/kg/injection, schedule: Q04DX003 (ip), vehicle: saline
[6] = endpoint: mean survival time, dose: 400.0 mg/kg/injection, schedule: Q04DX003 (ip), vehicle: saline
[7] = endpoint: mean survival time, dose: 100.0 mg/kg/injection, schedule: Q04DX003 (ip), vehicle: saline with Tween-80
[8] = endpoint: mean survival time, dose: 200.0 mg/kg/injection, schedule: Q04DX003 (ip), vehicle: saline with Tween-80
[9] = endpoint: mean survival time, dose: 400.0 mg/kg/injection, schedule: Q04DX003 (ip), vehicle: saline with Tween-80
[10] = endpoint: mean survival time, dose: 50.0 mg/kg/injection, schedule: Q04DX002 (ip), vehicle: saline with Tween-80
[11] = endpoint: mean survival time, dose: 100.0 mg/kg/injection, schedule: Q04DX002 (ip), vehicle: saline with Tween-80
[12] = endpoint: mean survival time, dose: 200.0 mg/kg/injection, schedule: Q04DX002 (ip), vehicle: saline with Tween-80
[13] = endpoint: mean survival time, dose: 50.0 mg/kg/injection, schedule: Q01DX001 (ip), vehicle: saline with Tween-80
[14] = endpoint: mean survival time, dose: 100.0 mg/kg/injection, schedule: Q01DX001 (ip), vehicle: saline with Tween-80

Measured: T/C

CCCCCCCCCCCCOCC[N+](C/C=C/c1ccccc1)(CCO)CCO
inactive: endpoint: mean survival time, dose: 6.25 mg/kg/injection, schedule: Q04DX003 (ip), vehicle: saline sonified 97 % of control | endpoint: mean survival time, dose: 12.5 mg/kg/injection, schedule: Q04DX003 (ip), vehicle: saline sonified 103 % of control | endpoint: mean survival time, dose: 25.0 mg/kg/injection, schedule: Q04DX003 (ip), vehicle: saline sonified 101 % of control

O=C(C(=O)c1ccc(Cl)c(Cl)c1)c1ccc(Cl)c(Cl)c1
inactive: endpoint: mean survival time, dose: 100.0 mg/kg/injection, schedule: Q01DX009 (ip), vehicle: Klucel (hydroxypropylcellulose) (HPC) 90 % of control | endpoint: mean survival time, dose: 200.0 mg/kg/injection, schedule: Q01DX009 (ip), vehicle: Klucel (hydroxypropylcellulose) (HPC) 91 % of control | endpoint: mean survival time, dose: 400.0 mg/kg/injection, schedule: Q01DX009 (ip), vehicle: Klucel (hydroxypropylcellulose) (HPC) 96 % of control

CC(C)(C)c1ccc(OS(=O)(=O)c2cccc([N+](=O)[O-])c2)cc1
inactive: [1] 86 % of control | [2] 102 % of control | [3] 94 % of control

CS/C([S-])=N/[NH-].CS/C([S-])=N/[NH-].[Ni]
inactive: endpoint: mean survival time, dose: 3.13 mg/kg/injection, schedule: Q01DX009 (ip), vehicle: saline with Tween-80 97 % of control | endpoint: mean survival time, dose: 12.5 mg/kg/injection, schedule: Q01DX001 (ip), vehicle: saline with Tween-80 102 % of control

Nc1nc(S)c(N)c(=S)[nH]1
inactive: endpoint: mean survival time, dose: 75.0 mg/kg/injection, schedule: Q01DX001 (ip), vehicle: carboxymethylcellulose (CMC) 102 % of control

CN(C(=O)Nc1ccccc1)c1ccccc1
inactive: endpoint: mean survival time, dose: 50.0 mg/kg/injection, schedule: Q01DX009 (ip), vehicle: other 104 % of control | endpoint: mean survival time, dose: 100.0 mg/kg/injection, schedule: Q01DX009 (ip), vehicle: other 97 % of control | endpoint: mean survival time, dose: 200.0 mg/kg/injection, schedule: Q01DX009 (ip), vehicle: other 97 % of control

CN(C)c1ccc(N=C2CC(=Nc3ccc(N(C)C)cc3)c3ccccc3C2=O)cc1
inactive: [4] 104 % of control | [5] 96 % of control | [6] 101 % of control

CCOC(=O)Nc1cc(N)c(N)c(=O)[nH]1
inactive: endpoint: mean survival time, dose: 100.0 mg/kg/injection, schedule: Q01DX001 (ip), vehicle: carboxymethylcellulose (CMC) 102 % of control | endpoint: mean survival time, dose: 200.0 mg/kg/injection, schedule: Q01DX001 (ip), vehicle: carboxymethylcellulose (CMC) 96 % of control | endpoint: mean survival time, dose: 400.0 mg/kg/injection, schedule: Q01DX001 (ip), vehicle: carboxymethylcellulose (CMC) 102 % of control

COC1CCC(/C=C(\C#N)C2CCC(C)CC2)CC1 (stereo unspecified)
inactive: endpoint: mean survival time, dose: 25.0 mg/kg/injection, schedule: Q01DX009 (ip), vehicle: saline with Tween-80 93 % of control | endpoint: mean survival time, dose: 50.0 mg/kg/injection, schedule: Q01DX009 (ip), vehicle: saline with Tween-80 91 % of control | [1] 90 % of control and 93 % of control | [3] 92 % of control

CCOC(=O)c1ccc(OCC(=O)Nc2ccccc2)cc1
inactive: [1] 97 % of control | [2] 96 % of control | [3] 103 % of control

CC1=Cc2ccc(C)cc2C(=O)C1=O
inactive: endpoint: mean survival time, dose: 1.56 mg/kg/injection, schedule: Q04DX002 (ip), vehicle: saline with Tween-80 117 % of control | endpoint: mean survival time, dose: 3.13 mg/kg/injection, schedule: Q04DX002 (ip), vehicle: saline with Tween-80 106 % of control

NC1(C(=O)O)CCCC1.[Pb]
inactive: endpoint: mean survival time, dose: 100.0 mg/kg/injection, schedule: Q01DX001 (ip), vehicle: saline 90 % of control

c1ccc(CN2CN(Cc3ccccc3)CN(Cc3ccccc3)C2)cc1
inactive: [1] 100 % of control | [7] 89 % of control | [2] 100 % of control | [8] 89 % of control | [3] 97 % of control | [9] 98 % of control

C[N+](C)(C)CCP(=O)([O-])O
inactive: [4] 98 % of control | [5] 101 % of control | [6] 101 % of control

O=C(N/N=C/c1cccc2ccccc12)C(O)c1ccccc1 (stereo unspecified)
inactive: [1] 104 % of control | [2] 101 % of control | [3] 98 % of control

O=c1[nH]cc(N=Cc2ccccc2F)c(=O)[nH]1.[Cl][Pt][Cl]
inactive: endpoint: mean survival time, dose: 3.13 mg/kg/injection, schedule: Q04DX003 (ip), vehicle: water 97 % of control | endpoint: mean survival time, dose: 6.25 mg/kg/injection, schedule: Q04DX003 (ip), vehicle: water 96 % of control | endpoint: mean survival time, dose: 12.5 mg/kg/injection, schedule: Q04DX003 (ip), vehicle: water 97 % of control | endpoint: mean survival time, dose: 25.0 mg/kg/injection, schedule: Q04DX003 (ip), vehicle: water 100 % of control | endpoint: mean survival time, dose: 50.0 mg/kg/injection, schedule: Q04DX003 (ip), vehicle: water 97 % of control | endpoint: mean survival time, dose: 100.0 mg/kg/injection, schedule: Q04DX003 (ip), vehicle: water 91 % of control | endpoint: mean survival time, dose: 200.0 mg/kg/injection, schedule: Q04DX003 (ip), vehicle: water 100 % of control

COc1cc2c(cc1OC)C1CC(=O)C3=C(CCCC3)N1CC2 (stereo unspecified)
inactive: [7] 101 % of control | [8] 95 % of control | [9] 89 % of control

CCOC(=O)Cc1cnc(SC)[nH]c1=O
inactive: endpoint: mean survival time, dose: 50.0 mg/kg/injection, schedule: Q04DX003 (ip), vehicle: Klucel (hydroxypropylcellulose) (HPC) 111 % of control | endpoint: mean survival time, dose: 100.0 mg/kg/injection, schedule: Q04DX003 (ip), vehicle: Klucel (hydroxypropylcellulose) (HPC) 106 % of control | endpoint: mean survival time, dose: 200.0 mg/kg/injection, schedule: Q04DX003 (ip), vehicle: Klucel (hydroxypropylcellulose) (HPC) 106 % of control | endpoint: mean survival time, dose: 600.0 mg/kg/injection, schedule: Q04DX003 (ip), vehicle: Klucel (hydroxypropylcellulose) (HPC) 100 % of control

COC1OC(C(COC(C)=O)OC(C)=O)C(OC(C)=O)C(OC(C)=O)C1OC(C)=O (stereo unspecified)
inactive: [1] 95 % of control | [2] 102 % of control | [3] 104 % of control

CC1OC(OC2C(O)C(CO)OC(OC3C(C(=O)O)OC(OC4CCC5(C)C(CCC6(C)C5CC=C5C7CC(C)(C)C(O)C(O)C7(CO)C(O)CC56C)C4(C)C)C(OC4OC(CO)C(O)C(O)C4O)C3O)C2O)C(O)C(O)C1O (stereo unspecified)
inactive: [10] 98 % of control | [11] 102 % of control | [12] 107 % of control

Oc1c(F)c(F)c(-c2c(F)ccc(F)c2F)c(F)c1F
inactive: endpoint: mean survival time, dose: 25.0 mg/kg/injection, schedule: Q01DX001 (ip), vehicle: saline with Tween-80 92 % of control | [13] 102 % of control | [14] 94 % of control

CCCN(CCC)S(=O)(=O)c1ccc(NC(=O)OC2CCC3(C)C(=CCC4C3CCC3(C)C(C(C)CCCC(C)C)CCC43)C2)cc1 (stereo unspecified)
inactive: endpoint: mean survival time, dose: 100.0 mg/kg/injection, schedule: Q01DX001 (sc), vehicle: steriod suspending solution 105 % of control | endpoint: mean survival time, dose: 200.0 mg/kg/injection, schedule: Q01DX001 (sc), vehicle: steriod suspending solution 97 % of control | endpoint: mean survival time, dose: 400.0 mg/kg/injection, schedule: Q01DX001 (sc), vehicle: steriod suspending solution 101 % of control

CN1C(=O)CCSC1=S
inactive: endpoint: mean survival time, dose: 25.0 mg/kg/injection, schedule: Q04DX002 (ip), vehicle: saline with Tween-80 94 % of control | [10] 105 % of control | [11] 105 % of control

CN(C)C(=S)Oc1c(S(=O)(=O)F)ccc(Cl)c1Cl
inactive: [11] 91 % of control | [12] 91 % of control | endpoint: mean survival time, dose: 400.0 mg/kg/injection, schedule: Q04DX002 (ip), vehicle: saline with Tween-80 97 % of control

C#CC(OC(C)=O)C1OC(n2cnc3c(Cl)nc(Cl)nc32)C(OC(C)=O)C1OC(C)=O (stereo unspecified)
inactive: endpoint: median survival time, dose: 12.5 mg/kg/injection, schedule: Q01DX005 (ip), vehicle: distilled water + Tween-80 109 % of control and 103 % of control | endpoint: median survival time, dose: 25.0 mg/kg/injection, schedule: Q01DX005 (ip), vehicle: distilled water + Tween-80 107 % of control and 100 % of control | endpoint: median survival time, dose: 50.0 mg/kg/injection, schedule: Q01DX005 (ip), vehicle: distilled water + Tween-80 103 % of control | endpoint: median survival time, dose: 100.0 mg/kg/injection, schedule: Q01DX005 (ip), vehicle: distilled water + Tween-80 108 % of control and 111 % of control | endpoint: median survival time, dose: 200.0 mg/kg/injection, schedule: Q01DX005 (ip), vehicle: distilled water + Tween-80 102 % of control and 111 % of control

O=C(O)c1ccccc1C(=O)Nc1cc(C(F)(F)F)ccc1Cl
inactive: [1] 104 % of control | [7] 105 % of control | [2] 96 % of control | [8] 105 % of control | [9] 111 % of control

BrC(Br)(c1ccccc1)C1OCCO1
inactive: [13] 107 % of control | endpoint: mean survival time, dose: 50.0 mg/kg/injection, schedule: Q04DX003 (ip), vehicle: saline with Tween-80 100 % of control | [14] 100 % of control | [7] 101 % of control | endpoint: mean survival time, dose: 200.0 mg/kg/injection, schedule: Q01DX001 (ip), vehicle: saline with Tween-80 102 % of control | [8] 97 % of control
